Test results as given in ChEMBL document CHEMBL1201862, “PubChem BioAssay data set” (2004).
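Results reflect a 48-hour exposure of cells in 96-well plates to compound at five concentrations. At the GI50, growth is halved.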 The source made the active and inactive calls. Cut-off read from the data, not from the text of the source: active = GI50 up to about 1.1 µM and inactive = higher.

Key:
Assay in all cases: NCI anticancer screen, dose series, 48 h
786-0 = test system: 786-0
KM12 = test system: KM12
LOX IMVI = test system: LOX IMVI
NCI-H23 = test system: NCI-H23
NCI-H522 = test system: NCI-H522
OVCAR-8 = test system: OVCAR-8
SF-268 = test system: SF-268
SK-MEL-28 = test system: SK-MEL-28
SK-MEL-5 = test system: SK-MEL-5
SNB-19 = test system: SNB-19
SNB-75 = test system: SNB-75
U-251 = test system: U-251
UACC-62 = test system: UACC-62
UO-31 = test system: UO-31

Measured: GI50

N[C@H]1C2C3CC4C5CC(C42)C1(c1ccccc1)C53 (stereo partly drawn)
inactive: 786-0 > 100 µM | KM12 > 100 µM | LOX IMVI > 100 µM | NCI-H23 > 100 µM | NCI-H522 > 100 µM | OVCAR-8 > 100 µM | SF-268 > 100 µM | SK-MEL-28 > 100 µM | SK-MEL-5 > 100 µM | SNB-19 > 100 µM | SNB-75 > 100 µM | U-251 > 100 µM | UACC-62 > 100 µM | UO-31 > 100 µM

N/N=C1\C(=O)N(C2CCCCCC2)C(=O)C1C(=O)NC1CCCCCC1 (stereo not drawn)
inactive: 786-0 29.6 µM | KM12 39.5 µM | NCI-H23 22.4 µM | NCI-H522 23.2 µM | OVCAR-8 39.3 µM | SF-268 36.9 µM | SK-MEL-28 > 10 µM | SK-MEL-5 17.1 µM | SNB-19 35.6 µM | U-251 15.8 µM | UACC-62 18.8 µM | UO-31 20.3 µM

Cc1cc(N(CCC#N)CCC#N)ccc1/C=C(\NC(=O)/C=C/c1ccccc1)NC(=O)Nc1ccc(Cl)cc1
inactive: 786-0 51.6 µM | KM12 15 µM | LOX IMVI 1.83 µM | NCI-H23 22.2 µM | OVCAR-8 80 µM | SF-268 62.2 µM | SK-MEL-28 > 100 µM | SK-MEL-5 3.83 µM | SNB-19 48.4 µM | U-251 14.3 µM | UACC-62 8.83 µM | UO-31 74.1 µM

C[C@]12CCC(=O)C(O)=C1CC[C@@H]1C2CC[C@]2(C)NC(=O)CCC12 (stereo partly drawn)
inactive: 786-0 > 100 µM | KM12 > 100 µM | LOX IMVI > 100 µM | NCI-H23 > 100 µM | NCI-H522 > 100 µM | OVCAR-8 > 100 µM | SF-268 > 100 µM | SK-MEL-28 > 100 µM | SK-MEL-5 > 100 µM | SNB-19 > 100 µM | SNB-75 > 100 µM | U-251 > 100 µM | UACC-62 > 100 µM | UO-31 > 100 µM

CCOC(=O)C(C)(c1cn(C)c2ccccc12)c1cn(C)c2ccccc12
inactive: 786-0 69.2 µM | KM12 > 100 µM | NCI-H23 44.7 µM | OVCAR-8 52.2 µM | SK-MEL-28 > 100 µM | SK-MEL-5 > 100 µM | SNB-75 19 µM | U-251 57.5 µM | UACC-62 87.9 µM | UO-31 > 100 µM

CCc1cccc(C)c1NC(=O)C(=O)Cc1nc2ccccc2s1
inactive: 786-0 > 100 µM | KM12 > 100 µM | NCI-H23 > 100 µM | NCI-H522 > 100 µM | OVCAR-8 > 100 µM | SF-268 > 100 µM | SK-MEL-28 > 100 µM | SK-MEL-5 > 100 µM | SNB-19 > 100 µM | SNB-75 > 100 µM | U-251 > 100 µM | UACC-62 > 100 µM | UO-31 > 100 µM

c1cncc(C2N3CCCCC3[C@@H]3c4[nH]c5ccccc5c4CCN23)c1 (stereo partly drawn)
inactive: 786-0 > 100 µM | NCI-H23 > 100 µM | OVCAR-8 > 100 µM | SF-268 > 100 µM | SK-MEL-28 > 100 µM | SK-MEL-5 > 100 µM | SNB-19 > 100 µM | SNB-75 > 100 µM | U-251 > 100 µM | UACC-62 47.6 µM | UO-31 > 100 µM

CCCN(CCC)c1c([N+](=O)[O-])cc(C(=O)N(C)C)cc1[N+](=O)[O-]
inactive: 786-0 > 100 µM | KM12 > 100 µM | NCI-H23 53.2 µM | NCI-H522 62.1 µM | OVCAR-8 > 100 µM | SF-268 > 100 µM | SK-MEL-28 > 100 µM | SK-MEL-5 5.07 µM | SNB-75 17 µM | U-251 86.5 µM | UO-31 92.9 µM

C/C(CN1C(=O)c2ccccc2C1=O)=N\NS(=O)(=O)c1ccc(C)cc1
inactive: 786-0 > 100 µM | KM12 > 100 µM | NCI-H23 > 100 µM | NCI-H522 > 100 µM | OVCAR-8 > 100 µM | SK-MEL-5 > 100 µM | SNB-19 > 100 µM | SNB-75 > 100 µM | U-251 > 100 µM | UACC-62 > 100 µM | UO-31 > 100 µM

CCCOc1ccc(/C=C\c2cc(OC)c(OC)c(OC)c2)cc1
inactive: 786-0 > 100 µM | KM12 28.4 µM | LOX IMVI 27.4 µM | NCI-H522 13.2 µM | OVCAR-8 > 100 µM | SF-268 > 100 µM | SK-MEL-28 63.4 µM | SK-MEL-5 13.6 µM | SNB-19 > 100 µM | SNB-75 85.5 µM | U-251 68.9 µM | UACC-62 41.4 µM | UO-31 33.2 µM

O=C(CC1(O)C(=O)Nc2ccccc21)c1cccc(O)c1 (stereo not drawn)
inactive: 786-0 > 100 µM | LOX IMVI > 100 µM | NCI-H23 > 100 µM | NCI-H522 > 100 µM | OVCAR-8 > 100 µM | SF-268 > 100 µM | SK-MEL-28 > 100 µM | SK-MEL-5 48.3 µM | SNB-19 > 100 µM | SNB-75 > 100 µM | UACC-62 > 100 µM | UO-31 46.1 µM

COc1ccc(C(=O)N/N=C/c2c(C)n(C)n(-c3ccccc3)c2=O)cc1
inactive: 786-0 > 100 µM | KM12 > 100 µM | LOX IMVI > 100 µM | NCI-H23 > 100 µM | NCI-H522 > 100 µM | OVCAR-8 > 100 µM | SF-268 > 100 µM | SK-MEL-28 > 100 µM | SNB-19 > 100 µM | SNB-75 > 100 µM | U-251 > 100 µM | UACC-62 > 100 µM | UO-31 > 100 µM

NC(=O)COc1c(Br)cc(Br)cc1Br
inactive: 786-0 > 100 µM | KM12 > 100 µM | NCI-H23 > 100 µM | NCI-H522 > 100 µM | OVCAR-8 > 100 µM | SF-268 > 100 µM | SK-MEL-28 > 100 µM | SK-MEL-5 > 100 µM | SNB-19 > 100 µM | SNB-75 > 100 µM | U-251 > 100 µM | UACC-62 > 100 µM | UO-31 > 100 µM

O=C1CN(C(=O)c2ccccc2)Cc2[nH]c3ccccc3c21
inactive: 786-0 > 100 µM | KM12 > 100 µM | LOX IMVI > 100 µM | NCI-H23 > 100 µM | NCI-H522 > 100 µM | OVCAR-8 > 100 µM | SK-MEL-28 > 100 µM | SK-MEL-5 > 100 µM | SNB-19 > 100 µM | SNB-75 > 100 µM | U-251 > 100 µM | UACC-62 > 100 µM | UO-31 > 100 µM

C/C(N)=[N+](/C)[O-]
inactive: 786-0 > 100 µM | KM12 > 100 µM | LOX IMVI 15.5 µM | NCI-H23 > 100 µM | NCI-H522 72.6 µM | OVCAR-8 > 100 µM | SF-268 46.3 µM | SK-MEL-28 82.4 µM | SK-MEL-5 > 100 µM | SNB-75 > 100 µM | U-251 > 100 µM | UACC-62 > 100 µM | UO-31 > 100 µM

COc1ccc2oc3c(OC)c(OC)c(OC)cc3c(=O)c2c1
inactive: 786-0 > 100 µM | LOX IMVI > 100 µM | NCI-H23 > 100 µM | NCI-H522 21.8 µM | OVCAR-8 > 100 µM | SF-268 > 100 µM | SK-MEL-28 > 100 µM | SK-MEL-5 > 100 µM | SNB-19 > 100 µM | SNB-75 24.7 µM | U-251 71.6 µM | UACC-62 > 100 µM | UO-31 > 100 µM
